Series [1] concerns the target T1, ACSS2 (Mus musculus, UniProt Q9QXG4).
T1 construct: from tissue; host or cells: living C57BL/6J mice; read-outs in kidney
Nature of the series: UUO mouse model of kidney fibrosis with ACSS2i. Type of series: in vivo, mice. The procedure: (§1) Animal studies were approved by the Institutional Animal Care and Use Committee (IACUC) of the University of Pennsylvania. Mice were housed in pathogen free conditions with 12 h dark and light cycle in a temperature- and humidity-controlled environment (23±1). The mice were fed ad libitum with water and rodent standard chow diet. 6- to 7-week-old male and female C57BL/6J mice were used in the study. Mice were randomly assigned to experimental groups for all experiments including drug efficacy studies. To induce kidney injury, the present study employed two widely used kidney disease models including unilateral ureteral obstruction (UUO) and folic acid nephropathy (FAN). UUO surgery experiments were conducted on male and female mice. Briefly, UUO was performed by ligating the right kidney ureter, and the left kidney served as a sham operated kidney. Post-surgical procedures were followed according to the IACUC guidelines. For FAN models, 300 mM sodium bicarbonate (NaHCO3) solution was first made to solubilize folic acid (FA) and injected into male mice (FA 250 mg/kg i.p at single dose). Mice were sacrificed 7 days following injection or surgery. For the drug injection studies, mice were first injected one day before the UUO surgery.
(§2) Approximately 20-30 mg of kidney tissue was homogenized in SDS-blue loading buffer (#7722, CST) containing 42 mM DTT. Samples were loaded onto the SDS-PAGE gels and run at 100v for 1 h 40 min at RT in Tris-Glycine-SDS buffer. The proteins were transferred onto a PVDF membrane. Membranes were blocked with 3% non-fat dry milk powder in tris-buffer saline containing Tween-20 (TBST) for 30 min at RT. The blots were then incubated with primary antibody overnight at 4OC. After primary antibody incubation, the blots were washed three times with TBST, IRdye-conjugated secondary antibodies were probed for 1 h at RT. Finally, the blots were washed in TBST for three minutes each, 10 min at RT, and scanned at 600, 700, and 800 excitation wavelengths in Li-COR imager (Odysseyφ XF), Image Studio software. The images were quantified for relative abundance in Image J software.
(§3) The tissues were fixed in formalin, dehydrated by an ethanol gradient (30%, 50%, 75% and 95%) and then submitted to the histology Core in 100% ethanol. Once the tissue was sectioned, H&E and Sirius red staining was performed. Images were acquired in Olympus 5000 microscope with Cell Sense software. Percentage of relative fibrosis was quantified in image J.
(§4) For the inhibitor studies, littermate mice were randomly assigned to receive either FASNall or ACSS2i. A single dose of 1 mg/ml FASNall was given via i.p injection at 10 mg/kg body weight one day prior to the UUO surgery. Mice were sacrificed 3 days after UUO surgery, and their kidneys were harvested. ACSS2i was injected at 20 mg/kg body weight via i.p injection one day prior to UUO surgery, followed by daily injections for 5 days. Mice sacrificed on the 7th day after UUO surgery.

For series [2], the target named is ACSS2 (Homo sapiens, UniProt Q9NR19). The settings on record: cell and animal models; cited from earlier work.
ACSS2 (Homo sapiens, UniProt Q9NR19), sequence (Q9NR19 whole entry, species assumed): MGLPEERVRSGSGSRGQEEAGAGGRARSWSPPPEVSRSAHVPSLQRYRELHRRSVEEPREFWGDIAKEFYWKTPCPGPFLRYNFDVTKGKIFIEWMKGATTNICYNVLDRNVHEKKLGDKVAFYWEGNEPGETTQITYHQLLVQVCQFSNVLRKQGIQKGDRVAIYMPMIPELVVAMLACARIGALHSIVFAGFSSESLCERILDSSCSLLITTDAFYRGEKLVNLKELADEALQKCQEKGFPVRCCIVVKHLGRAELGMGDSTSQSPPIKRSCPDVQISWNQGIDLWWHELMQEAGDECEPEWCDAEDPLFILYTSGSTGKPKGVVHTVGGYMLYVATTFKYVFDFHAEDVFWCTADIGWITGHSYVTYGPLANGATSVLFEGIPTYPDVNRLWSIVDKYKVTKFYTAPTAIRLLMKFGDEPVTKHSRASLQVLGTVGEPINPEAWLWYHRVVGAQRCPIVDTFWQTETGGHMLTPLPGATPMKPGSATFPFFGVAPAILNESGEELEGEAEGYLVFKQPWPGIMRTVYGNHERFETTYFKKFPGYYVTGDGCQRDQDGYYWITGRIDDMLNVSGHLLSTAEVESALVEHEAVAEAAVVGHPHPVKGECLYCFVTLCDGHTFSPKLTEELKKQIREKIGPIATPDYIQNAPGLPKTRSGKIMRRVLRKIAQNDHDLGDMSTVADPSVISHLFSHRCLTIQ
The target of series [3] is T2, FASN (Mus musculus, UniProt P19096).
T2 sequence (P19096 whole entry): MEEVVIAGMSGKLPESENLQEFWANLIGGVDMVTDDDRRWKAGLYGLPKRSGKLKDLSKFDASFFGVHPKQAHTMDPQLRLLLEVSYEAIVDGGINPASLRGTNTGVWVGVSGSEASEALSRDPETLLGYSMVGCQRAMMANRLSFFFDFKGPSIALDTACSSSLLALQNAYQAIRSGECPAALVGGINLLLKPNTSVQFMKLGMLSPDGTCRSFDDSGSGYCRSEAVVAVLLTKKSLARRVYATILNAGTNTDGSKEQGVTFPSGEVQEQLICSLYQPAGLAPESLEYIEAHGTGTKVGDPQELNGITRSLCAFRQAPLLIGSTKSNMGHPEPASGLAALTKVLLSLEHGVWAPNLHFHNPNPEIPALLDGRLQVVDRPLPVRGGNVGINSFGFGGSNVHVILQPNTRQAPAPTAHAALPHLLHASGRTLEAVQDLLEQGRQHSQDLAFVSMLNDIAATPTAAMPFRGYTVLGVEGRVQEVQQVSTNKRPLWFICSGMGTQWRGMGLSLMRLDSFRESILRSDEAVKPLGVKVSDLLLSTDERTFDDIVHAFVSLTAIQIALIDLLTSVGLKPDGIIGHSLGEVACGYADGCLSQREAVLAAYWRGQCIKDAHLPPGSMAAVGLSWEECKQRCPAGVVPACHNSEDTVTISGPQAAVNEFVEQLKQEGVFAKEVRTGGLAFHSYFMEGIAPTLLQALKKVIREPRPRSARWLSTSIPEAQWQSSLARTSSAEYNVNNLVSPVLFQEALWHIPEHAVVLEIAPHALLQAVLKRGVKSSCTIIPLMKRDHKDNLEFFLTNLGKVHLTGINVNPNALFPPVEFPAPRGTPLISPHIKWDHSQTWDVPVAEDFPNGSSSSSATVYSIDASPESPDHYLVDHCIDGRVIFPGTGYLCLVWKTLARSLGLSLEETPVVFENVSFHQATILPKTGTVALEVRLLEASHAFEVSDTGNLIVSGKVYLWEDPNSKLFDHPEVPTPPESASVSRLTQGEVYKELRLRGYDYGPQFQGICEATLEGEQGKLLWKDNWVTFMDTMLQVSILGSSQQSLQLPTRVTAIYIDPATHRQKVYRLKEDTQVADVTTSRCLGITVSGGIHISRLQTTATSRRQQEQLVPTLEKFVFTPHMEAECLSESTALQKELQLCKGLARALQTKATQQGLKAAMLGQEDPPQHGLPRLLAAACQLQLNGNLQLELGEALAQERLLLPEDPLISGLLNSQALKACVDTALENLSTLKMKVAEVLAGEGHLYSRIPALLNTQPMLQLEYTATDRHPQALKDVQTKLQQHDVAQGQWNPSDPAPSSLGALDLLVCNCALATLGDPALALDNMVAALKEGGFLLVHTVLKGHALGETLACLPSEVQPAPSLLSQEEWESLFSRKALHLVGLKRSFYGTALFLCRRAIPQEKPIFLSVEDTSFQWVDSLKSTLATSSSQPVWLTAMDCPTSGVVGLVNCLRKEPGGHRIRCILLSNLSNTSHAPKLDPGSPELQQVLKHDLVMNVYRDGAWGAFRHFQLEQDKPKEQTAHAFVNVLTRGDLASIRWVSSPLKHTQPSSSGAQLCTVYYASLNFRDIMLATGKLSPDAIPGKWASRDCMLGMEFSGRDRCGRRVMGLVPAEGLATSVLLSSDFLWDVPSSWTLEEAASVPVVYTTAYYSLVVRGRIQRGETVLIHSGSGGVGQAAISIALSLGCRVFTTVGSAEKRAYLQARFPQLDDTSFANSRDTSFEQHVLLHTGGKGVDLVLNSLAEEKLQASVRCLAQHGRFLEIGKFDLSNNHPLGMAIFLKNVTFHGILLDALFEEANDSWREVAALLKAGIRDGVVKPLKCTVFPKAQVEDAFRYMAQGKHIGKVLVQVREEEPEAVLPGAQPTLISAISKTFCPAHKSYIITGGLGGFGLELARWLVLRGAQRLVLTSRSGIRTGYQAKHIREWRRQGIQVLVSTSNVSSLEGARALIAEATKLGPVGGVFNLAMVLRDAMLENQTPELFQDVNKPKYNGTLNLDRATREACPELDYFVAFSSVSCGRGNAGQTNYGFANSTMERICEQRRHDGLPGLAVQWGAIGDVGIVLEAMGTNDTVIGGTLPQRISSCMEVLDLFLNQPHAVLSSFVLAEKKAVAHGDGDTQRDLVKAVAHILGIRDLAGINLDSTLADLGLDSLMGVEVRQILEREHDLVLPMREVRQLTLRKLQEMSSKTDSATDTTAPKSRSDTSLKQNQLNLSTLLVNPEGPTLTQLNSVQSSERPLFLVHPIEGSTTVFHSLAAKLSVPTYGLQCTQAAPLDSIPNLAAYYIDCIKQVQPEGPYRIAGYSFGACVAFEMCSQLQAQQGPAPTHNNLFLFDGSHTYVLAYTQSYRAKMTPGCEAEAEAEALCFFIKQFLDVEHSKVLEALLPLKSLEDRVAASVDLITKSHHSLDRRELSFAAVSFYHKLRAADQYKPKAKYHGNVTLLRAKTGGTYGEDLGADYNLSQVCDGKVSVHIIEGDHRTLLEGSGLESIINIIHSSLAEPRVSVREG
The target in series [4] is T2, FASN. Type of series: cell-based. The procedure:
The NADPH/NADP+ ratio was calculated according to the manufacturer protocol (#G1009, Promega). Briefly, an equal number of cells were cultured in a 96-well format and starved overnight for TGF-beta 1 treatments. Next, the cells were lysed in 20% DTAB containing Basic solution for 10 min at RT. Samples were processed according to the protocol for measuring NADPH and NADP+ from the same well simultaneously. The absolute and relative NADPH/NADP+ values were calculated according to the manufacturer's formula.
Reduced and oxidized glutathione levels were measured according to the Glutathione Colorimetric Detection Kit (#EIAGSHC, Thermo Scientific) from the same well after completion of all treatments.
(§5) Primary cells were cultured on microscopic cover glass overnight until they reached 70% confluency. Cells were incubated in a 5 μM MitoSox (#M36008, Thermo Scientific) solution for 10 min in incubator and processed for imaging and quantifications. Cells were also incubated in 10 μM JC-1 (#T3168, Thermo Scientific) for 10 min and then proceeded with imaging and quantifications.

The target in series [5] is T2, FASN. Type of series: in vivo. The method, then: as §1, §2, §3, §4
The test system of a further series is mitochondrial ROS. Nature of the series: MitoTempo in TGF-beta 1 treated primary tubule cells. In kind it is cell-based, mice. The procedure:
as §5
Cells cultured as above and pretreated with 100 μM MitoTempo (#SML0737, Sigma) for 2 h, followed by TGF-beta 1 treatments while MitoTempo was still present.

For the next series, the system named is primary TECs. Nature of the series: Cisplatin-treated primary kidney tubule cells from wild-type and Chmp1a+/- mice. Type of series: cell-based. The method, then: For primary culture of renal tubule cells, kidneys were collected from 2- to 4-week-old male mice. Cells were isolated by 2 mg/ml collagenase I (Gibco #17018-029) digestion for 30 min at 37° C. with gentle stirring and filtered through a 100-μm mesh. The cell suspension was cultured in RPMI 1640 (Corning #10-040-CM) supplement with 10% FBS (Atlanta Biologicals #S11950), 20 ng/ml EGF (Peprotech #AF-100-15), 1×ITS (Gibco #51500-056), and 1% penicillin-streptomycin (Corning #30-002-CI) at 5% CO2 and 37° C.
Primary cultured renal tubule cells or NRK52E cells were incubated with 1 μM transferrin (Thermo Fisher #T13342) for 4 h, or 5 μM mitoSOX (ThermoFisher #M36008) for 10 min, or 2 μM BODIPY™ 581/591 C11 (Thermo Fisher #D3861) for 0.5 h, or 20 ng/ml dextran conjugated to 488 (Thermo Fisher #D22910) for 2 h, at 5% CO2 and 37° C., respectively. After washing with PBS, cells were imaged directly under the confocal or regular fluorescence microscope.
Mouse primary tubular epithelial cells from wild-type, mutant mice or NRK52E cells were plated in 96-well plate. Transfection of NRK52E cells with siRNA was carried out as described above. […] Cells were harvested and stained with trypan blue (Thermo Fisher #T10282) to visualize dead cells. Cell counts were analyzed in Countess Auto Counter (Invitrogen, C10227). LDH release was quantified using CytoTox 96 Non-Radioactive Cytotoxicity Assay (Promega #G1780). Medium was collected in triplicates, spun down, and incubated in a 96-well plate with the CytoTox reagent for 20-30 min. After adding the stop solution, the absorbance signal was measured at 490 nm in a plate reader. The ratio between dead cell and live cell was calculated through the measurement using MultiTox-Fluor Multiplex Cytotoxicity Assay (Promega #9201). Cells were incubated in assay buffer containing live cell substrate GF-AFC and dead cell substrate bis-AAF-R110 for 30 min at 37° C. The plate fluorescence was measured using a plate reader as following: viability: excitation ˜400 nm; emission ˜505 nm. cytotoxicity: excitation ˜485 nm; emission ˜520 nm.

Entries after “also recorded” stand apart in the source; their conditions may differ.

T1 sequence (Q9QXG4 whole entry): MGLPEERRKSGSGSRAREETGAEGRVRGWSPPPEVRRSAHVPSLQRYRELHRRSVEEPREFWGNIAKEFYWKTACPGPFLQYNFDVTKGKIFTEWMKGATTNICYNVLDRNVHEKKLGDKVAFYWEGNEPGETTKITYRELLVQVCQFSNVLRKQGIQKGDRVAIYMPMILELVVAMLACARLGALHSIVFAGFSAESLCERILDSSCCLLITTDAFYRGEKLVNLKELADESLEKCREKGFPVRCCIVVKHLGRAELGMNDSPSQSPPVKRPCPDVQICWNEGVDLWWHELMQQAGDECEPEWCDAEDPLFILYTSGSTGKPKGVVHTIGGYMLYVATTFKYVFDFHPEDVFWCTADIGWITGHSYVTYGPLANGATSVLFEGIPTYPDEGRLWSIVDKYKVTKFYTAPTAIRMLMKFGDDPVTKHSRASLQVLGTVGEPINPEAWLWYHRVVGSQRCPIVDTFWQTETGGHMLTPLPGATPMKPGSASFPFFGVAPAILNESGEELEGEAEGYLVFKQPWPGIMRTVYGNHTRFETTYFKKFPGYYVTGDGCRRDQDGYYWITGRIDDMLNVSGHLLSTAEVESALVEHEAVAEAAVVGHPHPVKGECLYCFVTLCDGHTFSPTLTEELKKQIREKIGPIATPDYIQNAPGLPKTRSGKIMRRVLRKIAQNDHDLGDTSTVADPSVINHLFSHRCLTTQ

For the compound `COCCNC(=O)Nc1ccc2nc(-c3cccs3)c(-c3cccs3)nc2c1` [ACSS2i], the “fibrosis and tubule atrophy (H&E, Sirius red quantification)” value on ACSS2 [1] (UUO) is “markedly lower”. Besides, at ACSS2 [1] (UUO kidney injury), the “Gene and protein expression of fibrosis markers (Acta2, Col1a1, Col3a, and Fn1)” value is “reduced fibrosis; also recorded: protective effect”. For the same compound, on ACSS2 [1] (UUO kidneys), the “gene expression of NLRP3, IL-1B, IL18, caspase1 and Gsdmd” value was “lower”; the “lipid accumulation (Fasn, Plin2 expression, TG accumulation)” value is given as “inhibited”. Further, the “Protein levels of NLRP3, caspase1, cleaved caspase1 (p20), F-GSDMD, and N-GSDMD” value on ACSS2 [1] (UUO kidneys vs vehicle treated) is reported as “lower”. The kidney disease development entry at ACSS2 [1] (mice) is recorded as “protect mice from kidney disease development”. Besides, the “collagen fibers staining (Sirius Red)” value on ACSS2 [1] (vs vehicle alone) is “reduced”. Besides, the “UUO induced kidney injury (H&E analysis)” value at ACSS2 [1] (vs vehicle injected mice) was “prevented”. Also, the “obesity-induced multiple myeloma growth” value on ACSS2 [2] is listed as “reduce”.
Regarding `Cc1sc2ncnc(NC3CCN(Cc4ccccc4)C3)c2c1C` (stereo not drawn) [FASNall], the “cell death (cell viability)” value on FASN [3] is listed as “did not increase cell death”. The “less negative mitochondrial membrane potential (monomeric JC-1 accumulation)” value at FASN [4] (TGF-beta 1 treated WT cells) is recorded as “attenuated this effect”. Further, on FASN [4] (TGF-beta 1 treated cells), the “GSH levels and relative GSH/GSSH ratio” value was “preserved”. On FASN [4] (TGF-beta 1 treated tubule cells), the “NADPH/NADP+ ratio” value is on record as “preserved”. For the same compound, on FASN [5] (UUO kidneys), the “Protein levels of FN1 and α-SMA” value is given as “suppressed; also recorded: lower”; the “TGs (TAGs) levels in kidney” value was “prevented; also recorded: lower”; the “fibrosis markers Acta2, Col1a1, Col3a, and Fn1 gene expression” value is listed as “lower”; the “gene expression of NLRP3, IL-1B, IL18, caspase1 and Gsdmd” value is reported as “lower”. In addition, the “lipid accumulation (Oil red O staining)” value on FASN [5] (UUO kidneys) was “attenuated; also recorded: lower”. In addition, at FASN [5] (UUO kidneys vs vehicle), the “tissue scarring (Sirius red staining)” value is recorded as “less”; the “tubule atrophy and fibrosis (histological analysis)” value is on record as “lower”. At FASN [5] (UUO kidneys vs vehicle treated), the “Protein levels of NLRP3, caspase1, cleaved caspase1 (p20), F-GSDMD, and N-GSDMD” value is listed as “lower”. The “Fasn and Plin2 expression” value on FASN [5] (UUO kidneys, single dose 10 mg/kg i.p., 10 mg/kg) was “significantly prevented; also recorded: ameliorated”. The “kidney injury and fibrosis / kidney disease development” value at FASN [5] (mice) was “prevented kidney injury and fibrosis development; also recorded: protect mice from kidney disease development”.
With `CC1(C)CC(NC(=O)C[P+](c2ccccc2)(c2ccccc2)c2ccccc2)CC(C)(C)N1[O]` [Mito-TEMPO], in the series on mitochondrial ROS (following TGF-beta 1 treatment, MitoTempo 100 μM), the “inflammasome activation (IL-1B, IL18, and caspase1 increase)” value is “efficiently lowered”. Further, the “TGF-beta 1 induced expression of fibrosis markers / fibrotic genes” value in the series with mitochondrial ROS (primary TECs) is recorded as “lowered; also recorded: diminished”. In the series on primary TECs (Chmp1a+/- primary TECs), the “LDH release induced by cisplatin” value is “markedly lowered”. For the same compound, in the series on primary TECs (primary TECs from wild-type or Chmp1a+/- mice), the “lipid peroxidation (C11 BODIPY 581/591) induced by cisplatin” value is given as “markedly lowered”.

(Values after patent US20240229043A1, “Methods and Compositions for Treating, Ameliorating, and/or Preventing Chronic Kidney Disease (CKD) and Complications thereof by Regulating DPEP1, CASP9, ACSS2 and/or FASN” (THE TRUSTEES OF THE UNIVERSITY OF PENNSYLVANIA, priority 2022, published 2024).)
